The target in assay [1] is T1, STING AQ: His-TVMV-S-hSTING(155-341)-G230A-R293Q (Homo sapiens, UniProt Q86WV6, G230A/H232R/R293Q).
T1 construct: STING AQ: His-TVMV-S-hSTING(155-341)-G230A-R293Q
In words: STING HTRF Binding Assay, STING AQ. As to conditions: 20 nM His-tagged STING cytoplasmic domain, 40 nM fluorescein-labeled cGAMP analog probe, one hour; read-out: HTRF Binding Assays IC50 (μM) STING AQ. Here is the method:
(§1) A time resolved FRET-based competition binding assay was used to assess test article binding to STING WT and STING AQ. His-tagged STING cytoplasmic domain (WT or AQ) at a concentration of 20 nM was incubated with 2.5 nM Tb-labeled anti-His antibody, test compound, and fluorescein-labeled cGAMP analog probe (BioLog cat. no. C195) at a concentration of 200 nM (STING WT) or 40 nM (STING AQ) in PBS containing 0.005% Tween-20 and 0.1% BSA for one hour. Fluorescence at 495 nm and 520 nm was measured using an EnVision microplate reader to quantify FRET between Tb-labeled anti-His antibody and fluorescein-labeled probe. Background was defined as the signal obtained in the absence of STING protein, and background subtracted FRET ratios were normalized to the maximum signal obtained in the absence of test compound. These values were converted to a percent inhibition. Percent inhibition was determined for test compounds at 11 concentrations. The IC50, defined as the concentration of competing test compound needed to reduce specific binding of the probe by 50%, was calculated using the 4 parameter logistic equation to fit the data

For assay [2], the system named is IRF pathway in THP1-Dual STING reporter cells. In words: STING THP1 Reporter Assay, IRF pathway (secreted Lucia luciferase). It is filed as cell-based, human. As to conditions: Homo sapiens, THP1-Dual, 20 h, THP1-Dual cells, 10% human plasma, 20 hours, luciferase; 100% = 100 μM cGAMP; read-out: THP1 Reporter Assays EC50 (μM) IRF3. An excerpt:
(§2) THP1-Dual™ cells were derived from the human THP-1 monocyte cell line by stable integration of two inducible reporter constructs. To this end, THP1-Dual™ cells allow the simultaneous study of the NF-κB pathway, by monitoring the activity of SEAP, and the IRF pathway by assessing the activity of a secreted luciferase (Lucia). Both reporter proteins are readily measurable in the cell culture supernatant when using QUANTI-Blue™, a SEAP detection reagent, and QUANTI-Luc™, a luciferase detection reagent.
(§3) THP1-Dual™ cells induce the activation of NF-κB in response to STING agonists. They also trigger the IRF pathway upon stimulation with STING agonists, such as cGAMP. Here, the THP-1-Dual cells were used to assess STING binders for function on the cellular level.
(§4) Serial dilutions of compounds in DMSO were added to low volume 384 well plates at 100 nl/well using an ECHO acoustic dispenser (Labcyte, model 550) to achieve final starting concentration of 100 μM in cell suspension. […] One column of the plate was reserved for treatment with cGAMP at 100 μM for 100% activation calculation and one column for no treatment (DMSO only) for baseline activation. Plates were then incubated in 37° C. incubator at 5% CO2 for 20 hours.
(§5) In the SEAP assay, 5 μl of 2× QuantiBlue (Invivogen, cat #Rep-qb2) is added to 384 well black plates seeded with THP1 cells and incubated at 37° C. for 2 hours. Plates were read on the Envision (Perkin Elmer) at 620 nm wavelength (OD620). In the luciferase assay, 5 μl of Quantiluc (Invivogen, Rep-qlc2) is added to white 384 well plates seeded with THP1 cells and read at 5 minutes on the Envision (Perkin Elmer) using a luminescence protocol (RLU). For both cell lines, 100% activation was determined by value (RLU) of THP-1 Dual STING cells stimulated with 100 μM cGAMP (Invivogen, cat #TLRL-NACGA23-5).
(A reporter such as luciferase makes a cellular process visible.)

Assay [3] has as its target T2, STING WT: His-TVMV-S-hSTING(155-341)-H232R (Homo sapiens, UniProt Q86WV6, H232R).
T2 construct: STING WT: His-TVMV-S-hSTING(155-341)-H232R
The assay is described as follows: STING HTRF Binding Assay, STING WT. As to conditions: 20 nM His-tagged STING cytoplasmic domain, 200 nM fluorescein-labeled cGAMP analog probe, one hour; read-out: HTRF Binding Assays IC50 (μM) STING WT. Here is the method: as §1
In general terms: Time-resolved FRET reads energy transfer from a long-lived donor to a nearby acceptor.

Assay [4] deals with NF-κB pathway in THP1-Dual STING reporter cells. The assay is described as follows: STING THP1 Reporter Assay, NF-κB pathway (SEAP). The class given is cell-based, human. As to conditions: Homo sapiens, THP1-Dual, 20 h, 100% = 100 μM cGAMP.
Text: as §2, §3, §4, §5

Setting [5] is: THP1-Dual cells, 10% human plasma, 20 hours, SEAP, read-out: THP1 Reporter Assays EC50 (μM) NFkB.

Each structure is given as a SMILES string. Read-outs that look alike come from different tables or passages of the source.

T2 sequence (Q86WV6 with tags, fused parts or gaps H232R): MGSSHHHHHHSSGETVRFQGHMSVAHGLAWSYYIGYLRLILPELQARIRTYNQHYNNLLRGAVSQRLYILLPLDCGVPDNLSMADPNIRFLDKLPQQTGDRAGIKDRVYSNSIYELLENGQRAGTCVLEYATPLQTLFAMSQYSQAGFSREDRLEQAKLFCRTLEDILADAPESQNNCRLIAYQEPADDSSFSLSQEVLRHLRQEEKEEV
T1 sequence (Q86WV6 with tags, fused parts or gaps G230A/H232R/R293Q): as the sequence (Q86WV6 with tags, fused parts or gaps H232R) above, with G99A, R162Q counted along it

What is called IC50 is the midpoint of a concentration-inhibition curve. Usually EC50 stands for the concentration giving half of the maximal effect. As for `NC(=O)c1cc([C@@H]2O[C@@H]3COP(=O)(O)O[C@H]4[C@@H](F)[C@H](n5cnc6c(N)ncnc65)O[C@@H]4COP(=O)(S)O[C@H]3[C@H]2O)ccn1` (stereo partly drawn) [Example 14, 4-[(1R,6R,8S,9S,10S,15R,17R,18R)-17-(6-amino-9H-purin-9-yl)-18-fluoro-3,9-dihydroxy-3,12-dioxo-12-sulfanyl-2,4,7,11,13,16-hexaoxa-3λ^5,12λ^5-diphosphatricyclo[13.3.0.0^6,10]octadecan-8-yl]pyridine-2-carboxamide], the half-inhibitory concentration (IC50) in assay [1] was 1.14 µM; in assay [3], > 100 µM. Moreover, the concentration giving a half-maximal response (EC50) in assay [2] and in assay [4] (setting [5]) was > 100 µM throughout.
For `Nc1nc2c(ncn2[C@@H]2O[C@@H]3COP(=O)(O)O[C@H]4[C@@H](O)[C@H](n5cnc6c(N)ncnc65)O[C@@H]4COP(=O)(S)O[C@H]3[C@H]2O)c(=O)[nH]1` (stereo partly drawn) [Example 15, (1S,8R,9R,10S,15R,17R,18R)-8-(2-amino-6-oxo-6,9-dihydro-1H-purin-9-yl)-17-(6-amino-9H-purin-9-yl)-3,9,18-trihydroxy-12-sulfanyl-2,4,7,11,13,16-hexaoxa-3λ^5,12λ^5-diphosphatricyclo[13.3.0.0^6,10]octadecane-3,12-dione], the IC50 in assay [1] is 0.83 µM; in assay [3] it was 9.55 µM. Moreover, the EC50 in assay [2] and in assay [4] (setting [5]) was > 100 µM in each case.
Consider `Nc1nc2c(ncn2[C@@H]2O[C@@H]3COP(=O)(O)O[C@H]4[C@@H](O)[C@H](n5cnc6c5ncn5ccnc65)O[C@@H]4COP(=O)(S)O[C@H]3[C@H]2O)c(=O)[nH]1` (stereo partly drawn) [Example 16], for which the IC50 in assay [1] was 5.65 µM; in assay [3], 96 µM. Besides, the half-maximal effective concentration (EC50) in assay [2] and in assay [4] (setting [5]) was > 100 µM each time.
As for `O=c1[nH]cnc2c1ncn2[C@@H]1O[C@@H]2COP(=O)(O)O[C@H]3[C@@H](O)[C@H](n4cnc5c4ncn4ccnc54)O[C@@H]3COP(=O)(O)O[C@H]2[C@H]1O` [Example 18], the IC50 is 0.49 µM in assay [1] and 25.3 µM in assay [3]. The concentration giving a half-maximal response (EC50) in assay [2] and in assay [4] (setting [5]) was > 100 µM throughout.
With `O=P1(O)OC[C@H]2O[C@@H](n3cnc4c3ncn3ccnc43)[C@H](O)[C@@H]2OP(=O)(O)OC[C@H]2O[C@@H](n3cnc4c3ncn3ccnc43)[C@H](O)[C@@H]2O1` [Example 19], the IC50 was 0.65 µM in assay [1] and 28.6 µM in assay [3]. The EC50 in assay [2] and in assay [4] (setting [5]) was > 100 µM throughout.
Take `Nc1ncnc2c1ncn2[C@@H]1O[C@@H]2COP(=O)(O)O[C@H]3[C@@H](F)[C@H](n4cnc5c4ncn4ccnc54)O[C@@H]3COP(=O)(O)O[C@H]2[C@H]1O` [Example 20]: the IC50 worked out at 0.01 µM in assay [1] and 0.04 µM in assay [3]. Moreover, the EC50 worked out at 3.71 µM in assay [2] and 13.6 µM in assay [4] (read-out: THP1 Reporter Assays EC50 (μM) NFkB, THP1-Dual cells, 10% human plasma, 20 hours, SEAP).

The values above are taken from patent US11660311B2, “Cyclic dinucleotides as anticancer agents” (priority 2017, dated 2023).
